Results taken from patent US5374772A, “Substituted benzoic acids, inhibitors of phospholipases A2” (Hoffmann-LaRoche Inc., priority 1993, dated 1994).

System: paw edema induced by Naja naja venom phospholipase A2
Assay: Phospholipase A2 Rat Paw Edema
Assay type: in vivo, Lewis rats
Conditions: 30 mg/kg ip, measured 2 hours after PLA2 injection

CCCCCCCCCCCCCCCCCCOc1cc(OC(=O)C(c2ccccc2)c2ccccc2)cc(C(=O)O)c1 [Example 11, 3-(Octadecyloxy)-5-(2,2-diphenyl-1-oxoethoxy) benzoic acid]
inhibition of edema (PLA2 rat paw edema): 29%
